Tests used:
[1] = Neutralization and covalent sequestration of compound VI by nucleophile-functionalized solid phase agents (LCMS); type: physicochemical
Experimental: Sulfonylchloride functionalized divinylbenzene crosslinked polystyrene resin (Sigma-Aldrich Cat. no. 498211-5g) was mixed with 5 ml 2M sodium hydrogen sulfide solution (prepared by saturation of sodium sulfide nonahydrate solution in water with hydrogen sulfide) under argon. The mixture was sonicated for ca. 3 min and then stirred at 55° C. for 4 h. After that the resin was filtered and washed three times with deaerated water, there times with deaerated methanol, and two times with deaerated ether. The resin was dried under stream of argon and then under vacuum. Obtained, 1.039 g dry resin (compound XXVIII), thiosulfonate functionalized polystyrene/divinylbenzene resin. An aliquot of compound XXVIII was added to a solution of compound VI, 100 μM in PBS.
Aminoethyl groups functionalized methacrylate resin (Purolite Ltd, Llantrisant, Wales, UK, Product No. D6195, trade name Chromalite MAM2, 0.5 mmol amino groups per ml wet resin, 68% moisture), 300 mg, was dried by three evaporation from 2 ml dry N,N-dimethylformamide under vacuum at 35° C. […] The load of mercapto groups on the product, compound XXX, was determined using the Elman's procedure (Riener, C. K.; Kada, G.; Gruber, H. J., Anal. Bioanal. Chem., 2002, 373, 266-76) and was 0.21 mmol per gram of wet resin. […]
Tentagel S NH2 resin, 200 mg (Rapp Polymere GmbH, Tuebingen, Germany, product No. S30132, divinylbenzene cross-linked polystyrene resin grafted with amino group terminated polyethylene glycol) was swollen for couple of hours in 5 ml dry N,N-dimethylformamide and then the excess of solvent was pipetted off Benzotriazol-1-yl-oxytripyrrolidinophosphonium hexafluorophosphate, 151 mg, 2-(4-(triphenylmethylthio)phenyl)acetic acid, 119 mg, and anhydrous 1-hydroxybenzotriazole, 44 mg, were dissolved in 1.2 mL dry N,N-dimethylformamide. […] The mercapto groups load was determined using the Elman's procedure and was 0.12 mmol per gram of dry resin. […]

[2] = Neutralization of compound X with methyl thiosalicylate (LCMS); type: physicochemical; details: 100 μM compound X, 10 mM methyl thiosalicylate, PBS
Experimental: The rate of neutralization of […] can be determined by plotting of logarithm of compound X concentration, determined by its peak area against the time of incubation.

[3] = Binding of compound X to sulfonic cation exchange resin (Purolite NRW160, Na+ form) through ion pairs; type: physicochemical; details: 50 mg dry beads in one mL of 100 μM solution in PBS
Experimental: Purolite NRW160 polystyrene divinylbenzene cross-linked resin functionalized with sulfonic groups in the H^+ form, 500 g was transferred into the Na^+ form by the following steps: The beads were washed on a vacuum filter and under a sterile hood with 3 volumes of saturated NaCl solution, followed by two volume of 1 M NaOH. After NaOH sterilization beads were washed by sterile deionized water until the pH of the rinsings became neutral. The beads were incubated with two volumes of methanol for 15 min and after removing of methanol were rinsed again with three volumes of sterile deionized water. After final incubation in methanol (2 volumes) the alcohol was removed by filtration and beads were dried under the vacuum.
Dry beads, 50 mg were added to one mL of 100 μM solution of compound X in phosphate buffered saline.

[4] = system: synthetic 23-mer oligoribonucleotide (SEQ ID NO:2); test: Reactivity toward nucleic acids, mass spectrometry; type: biochemical; details: 100 μM oligonucleotide, 100 μM compound, PBS pH 7, room temperature, 6 min
[5] = system: 21-mer synthetic oligodeoxyribonucleotide (SEQ ID NO:1); test: Reactivity toward nucleic acids, HPLC; type: biochemical; details: 10 μM oligonucleotide, 200 μM compound, PBS pH 6.7, 37° C., 6 h

Row | SMILES | concentration of compound VI in the mixture ([1]; 100 μM in PBS with mercaptophenyl TentaGel S resin XXXII) | concentration of compound VI in the mixture ([1]; 100 μM in PBS with mercaptophenyl methacrylate resin XXX) | concentration of compound VI in the mixture ([1]; 100 μM in PBS with thiosulfonate functionalized resin XXVIII) | compound X half-life T1/2 [2] [min] | concentration of compound X in the supernatant [3] | covalent adduct with the oligonucleotide (MS) [4] | covalent adducts with the oligonucleotide (HPLC) [5]
1 | CN(CCCCN(C)CCCN1CC1)CCCN1CC1 [Compound VI, N^1,N^4-bis(3-(aziridin-1-yl)propyl)-N^1,N^4-dimethylbutane-1,4-diamine] | time dependent decreasing | time dependent decreasing | time dependent decreasing | – | – | – | –
2 | CN(CCCCN(C)CCCN1CC1)CCCN(C)CCCN1CC1 [Compound X] | – | – | – | 16.6 | below 30 nM | covalent mono-adduct | appearance of covalent adducts

Reference: patent publication US20250127168A1, “METHOD FOR PATHOGENS, MICROORGANISMS, AND PARASITES INACTIVATION” (New York Blood Center, Inc., priority 2018, published 2025)
